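1) Cells in 96-well plates. 2) Compound, 48 h, 5 concentrations. 3) Linear interpolation between surrounding doses. 4) Unreached endpoint = highest concentration. Here, GI50 denotes the concentration required for 50% inhibition of growth. Definition used: TGI = concentration required for complete inhibition of growth.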 Activity calls are given as the source filed them. No stated cut-off is given here; in the data, active means GI50 below about 0.43 µM; inactive means the rest.
How the values were obtained:
Assay in all cases: DTP human tumour cell line panel, 48 h
MDA-N = system: MDA-N
XF 498 CNS = system: XF 498 CNS
LXFL 529 NSCLC = system: LXFL 529 NSCLC
SNB-78 CNS = system: SNB-78 CNS
RXF-631 renal = system: RXF-631 renal
DMS 114 small cell lung = system: DMS 114 small cell lung
KM20L2 colon = system: KM20L2 colon
DMS 273 small cell lung = system: DMS 273 small cell lung
HOP-18 NSCLC = system: HOP-18 NSCLC

Compound: CCOC(=O)n1c2ccccc2c(=O)n1CCO
- TGI (MDA-N): > 100 µM

Compound: CCOc1ccc(/C=C2/C(=O)N=C(N)N=C2N)cc1OCC
- TGI (XF 498 CNS): > 100 µM
- TGI (LXFL 529 NSCLC): > 100 µM
- TGI (SNB-78 CNS): > 100 µM
- TGI (RXF-631 renal): > 100 µM
- TGI (DMS 114 small cell lung): > 100 µM
- TGI (KM20L2 colon): > 100 µM
- TGI (DMS 273 small cell lung): > 100 µM
- TGI (HOP-18 NSCLC): > 100 µM

Compound: O=C(O)C1=C(C(=O)O)Oc2ccccc2O1
- TGI (XF 498 CNS): > 100 µM
- TGI (LXFL 529 NSCLC): > 100 µM
- TGI (SNB-78 CNS): > 100 µM
- TGI (DMS 114 small cell lung): > 100 µM
- TGI (KM20L2 colon): > 100 µM
- TGI (DMS 273 small cell lung): > 100 µM
- TGI (HOP-18 NSCLC): > 100 µM

Compound: CC1(C)CC(O)CC(C)(C)N1.CC1(C)CC(O)CC(C)(C)N1.CC1(C)CC(O)CC(C)(C)N1.CC1(C)CC(O)CC(C)(C)N1.Cl.[Ti]
- GI50 (LXFL 529 NSCLC): > 100 µM
- TGI (LXFL 529 NSCLC): > 100 µM
- GI50 (SNB-78 CNS): > 100 µM
- TGI (SNB-78 CNS): > 100 µM
- GI50 (RXF-631 renal): > 100 µM
- TGI (RXF-631 renal): > 100 µM
- GI50 (DMS 114 small cell lung): > 100 µM
- TGI (DMS 114 small cell lung): > 100 µM
- GI50 (KM20L2 colon): > 100 µM
- TGI (KM20L2 colon): > 100 µM
- GI50 (DMS 273 small cell lung): > 100 µM
- TGI (DMS 273 small cell lung): > 100 µM
- GI50 (HOP-18 NSCLC): > 100 µM
- TGI (HOP-18 NSCLC): > 100 µM

Compound: O=S(=O)(Cc1ccccc1)SCc1ccccc1
- TGI (SNB-78 CNS): 48.2 µM
- TGI (RXF-631 renal): 36.4 µM
- TGI (DMS 114 small cell lung): 32 µM
- TGI (KM20L2 colon): 40.1 µM
- TGI (DMS 273 small cell lung): 98.2 µM
- TGI (HOP-18 NSCLC): 84.3 µM

Compound: NCC(Cc1ccccc1)P(=O)(O)O (stereo not drawn)
- TGI (MDA-N): > 100 µM

Compound: Nc1c(-c2nc3ccccc3s2)[n+]([O-])c2ccccc2[n+]1[O-]
- TGI (LXFL 529 NSCLC): 77.6 µM
- TGI (SNB-78 CNS): > 100 µM
- TGI (DMS 114 small cell lung): > 100 µM
- TGI (KM20L2 colon): > 100 µM
- TGI (HOP-18 NSCLC): 86.2 µM

Compound: Nc1nc(-c2ccccc2)cc(-c2cc(Cl)ccc2O)n1
- TGI (LXFL 529 NSCLC): > 100 µM
- TGI (SNB-78 CNS): > 100 µM
- TGI (RXF-631 renal): > 100 µM
- TGI (DMS 114 small cell lung): > 100 µM
- TGI (KM20L2 colon): > 100 µM
- TGI (DMS 273 small cell lung): > 100 µM
- TGI (HOP-18 NSCLC): > 100 µM

Compound: NNC(=O)N/N=C1\CNC(=O)C(=O)C1c1nc2ccccc2s1 (stereo not drawn)
- TGI (XF 498 CNS): > 100 µM
- TGI (LXFL 529 NSCLC): > 100 µM
- TGI (SNB-78 CNS): > 100 µM
- TGI (DMS 114 small cell lung): > 100 µM
- TGI (KM20L2 colon): > 100 µM
- TGI (DMS 273 small cell lung): > 100 µM

Compound: CC1(C)OC2OC(COC(=O)C(c3ccccc3)c3ccccc3)C3OC(C)(C)OC3C2O1 (stereo not drawn)
- TGI (XF 498 CNS): 99.7 µM
- GI50 (LXFL 529 NSCLC): > 100 µM
- TGI (LXFL 529 NSCLC): > 100 µM
- TGI (DMS 114 small cell lung): > 100 µM
- TGI (KM20L2 colon): > 100 µM

Compound: CC(=O)c1c(O)c2c([nH]c1=O)CCCC2
- TGI (XF 498 CNS): > 100 µM
- TGI (LXFL 529 NSCLC): > 100 µM
- TGI (SNB-78 CNS): > 100 µM
- TGI (RXF-631 renal): 59.2 µM
- TGI (DMS 114 small cell lung): > 100 µM
- TGI (KM20L2 colon): > 100 µM
- TGI (DMS 273 small cell lung): 70.5 µM
- TGI (HOP-18 NSCLC): > 100 µM

Compound: COc1cc2c(cc1OC)C(SC)C(=O)N(Cc1cccc(OC)c1OC)CC2 (stereo not drawn)
- TGI (MDA-N): 1.53 µM
- TGI (LXFL 529 NSCLC): 39.5 µM
- TGI (SNB-78 CNS): 5.19 µM
- TGI (DMS 114 small cell lung): 5.49 µM
- TGI (KM20L2 colon): > 100 µM
- TGI (DMS 273 small cell lung): 12.2 µM
- TGI (HOP-18 NSCLC): > 100 µM

Compound: c1ccc2c(c1)[O][Sn][O]2
- outcome (LXFL 529 NSCLC): inactive
- GI50 (SNB-78 CNS): > 150 µg/mL
- TGI (SNB-78 CNS): > 150 µg/mL
- outcome (RXF-631 renal): inactive
- GI50 (DMS 114 small cell lung): 8.87 µg/mL
- TGI (DMS 114 small cell lung): > 150 µg/mL
- outcome (KM20L2 colon): inactive
- GI50 (DMS 273 small cell lung): 10.4 µg/mL
- TGI (DMS 273 small cell lung): > 150 µg/mL
- outcome (HOP-18 NSCLC): inactive

Compound: CC(C)=CC(=O)CC(=O)C(=O)NCCNC(=O)C(=O)CC(=O)C=C(C)C
- TGI (XF 498 CNS): > 50 µM
- TGI (LXFL 529 NSCLC): > 50 µM
- TGI (SNB-78 CNS): > 50 µM
- TGI (DMS 114 small cell lung): > 50 µM
- TGI (KM20L2 colon): > 50 µM
- TGI (DMS 273 small cell lung): > 50 µM
- TGI (HOP-18 NSCLC): > 50 µM

Compound: CCOC(=O)COc1cccc2occc(=O)c12
- TGI (XF 498 CNS): > 100 µM
- TGI (LXFL 529 NSCLC): > 100 µM
- TGI (SNB-78 CNS): > 100 µM
- TGI (DMS 114 small cell lung): > 100 µM
- TGI (KM20L2 colon): > 100 µM
- TGI (DMS 273 small cell lung): > 100 µM

— PubChem BioAssay (NCI)
